Results on 17 compounds are retold here after patent US6100283A, “Benzimidazole compounds” (Newcastle University Ventures Limited, priority 1995, dated 2000).

Values joined by “and” are separate entries in the source; they are usually repeats but may differ in a detail not shown here. Equal values may be shown once. Read-outs that look alike come from different tables or passages of the source.

By IC50 is commonly meant the point on the concentration scale where inhibition reaches its midpoint.

Data set [1] concerns the target T1, PARP (Mus musculus, UniProt P11103).
T1 construct: endogenous in cells; host or cells: L1210 murine leukaemia cells, permeabilised by hypotonic buffer and cold shock
Put plainly: PARP enzyme inhibition assay ([32P]-NAD+ incorporation into TCA-precipitated poly(ADP-ribose), oligonucleotide-activated, permeabilised L1210 cells). The conditions noted are these: for IC50: permeabilised L1210 cells, 26° C., 5 minutes. The data set is classed as biochemical, murine (L1210 leukaemia cells). The text has this: The poly(ADP-ribose) which is then synthesised by the enzyme can be precipitated by tri-chloracetic acid (TCA) and the amount of radio-labelled ^32 p incorporated therein measured, e.g. using a scintillation counter, to give a measure of the activity of the PARP under the particular conditions of the experiment. By repeating the experiment following the same procedure, and under the same conditions, in the presence of each compound to be tested the reduction in enzyme activity, representative of the inhibitory effect of the test compound, can then be ascertained from the reduction, if any, of the amount of [^32 p] measured in the TCA precipitated poly(ADP-ribose).
Thus, with a range of different compounds a set of comparative values for inhibitory activity can be obtained.
In practice, L1210 murine leukaemia cells have been used as a source of the PARP enzyme after being rendered permeable to exogenous [^32 P]NAD by exposure to hypotonic buffer and cold shock. […] This oligonucleotide sequence snaps back on itself to form a double-stranded molecule with a single blunt end and provides an effective substrate for activation of PARP.
The experimental protocol adopted, in which a synthetic oligonucleotide as mentioned above is introduced as a specific activator of PARP, discriminates between PARP and other mono-ADP-ribosyltransferases in the cells.
The oligonucleotide having the palindromic sequence […], synthesised by conventional means, was vacuum dried and stored as pellets in a freezer. Before use, it was made up to 200 μg/ml in 10 mM Tris/HCl, pH 7.8, with each pellet being dissolved completely in […] of buffer. The solution was then heated to 60° C. in a water bath for 15 minutes, and allowed to cool slowly to ensure correct reannealing. After adding 9.5 ml of buffer, the concentration was checked by measuring the optical density of a diluted sample at 260 nm. The main solution was then diluted to a concentration of 200 μg/ml and stored in 500 μl aliquots in a freezer, ready for use.
The L1210 cells used as the source of the PARP enzyme were maintained as a suspension culture in RPMI medium+10% foetal bovine serum+glutamine and antibiotics (penicillin and streptomycin). HEPES and sodium bicarbonate were also added, and the cells were seeded in 100 ml-200 ml of medium such that there would be a concentration of approximately 8×10^5 /ml at the time of carrying out an assay.
The solubility of the compound was then checked by adding a quantity of the DMSO solution to a quantity of the isotonic buffer, in the required final proportions that were to be used in carrying out the assay, and after an interval the solution was examined under a microscope for any signs of crystals forming.
A desired quantity of the cells, ascertained by counting with a haemocytometer, was then centrifuged (1500 rpm in a "Europa" model 24M centrifuge for 5 minutes), the supernatant removed, and the pellets obtained were resuspended in 20 ml Ca^++ Mg^++ free phosphate buffered saline (Dulbeco's modification A, abbreviated Dul A) at 4° C. before centrifuging again at 1500 rpm and 4° C. After again removing the supernatant, the cells were resuspended at a concentration of 3×10^7 cells/ml in ice cold hypotonic buffer and left for 30 minutes on ice. Nine volumes were then added of ice cold isotonic buffer, and the cells, now rendered permeable to exogenous NAD^+, were then used within the next hour for carrying out an assay. The permeablisation of the cells may be checked at this stage by adding duplicate aliquots of cells to an equal volume of trypan blue, leaving for 5 minutes and then counting on a haemocytometer. Those rendered permeable will take up the Trypan blue and appear coloured.

In data set [2] the test system is L1210 murine leukaemia cells. The data set can be described thus: in vitro cytotoxicity assay (colony formation, L1210 cells, NU1064 with or without temozolomide). The data set is classed as cell-based. The conditions noted are these: for relative plating efficiency, NU1064 with temozolomide: 24 hours, normalised to temozolomide alone = 100%. How it is done:
Again using cultures of the murine leukaemia L1210 cell line, growth inhibition experiments were carried out to assess the cytostatic effects of the compounds and clonogenic survival assays were performed to assess cytotoxicity, especially in relation to use of the compounds in conjunction with DNA damaging cytotoxic agents such as cytotoxic antitumour drugs or gamma irradiation. […] After 1 week colonies of viable cells were stained with MTT (1 ml 0.5 mg/ml) and counted.

Setting [3] is: read-out: IC50 value (PARP inhibition).

T1 sequence (P11103 whole entry): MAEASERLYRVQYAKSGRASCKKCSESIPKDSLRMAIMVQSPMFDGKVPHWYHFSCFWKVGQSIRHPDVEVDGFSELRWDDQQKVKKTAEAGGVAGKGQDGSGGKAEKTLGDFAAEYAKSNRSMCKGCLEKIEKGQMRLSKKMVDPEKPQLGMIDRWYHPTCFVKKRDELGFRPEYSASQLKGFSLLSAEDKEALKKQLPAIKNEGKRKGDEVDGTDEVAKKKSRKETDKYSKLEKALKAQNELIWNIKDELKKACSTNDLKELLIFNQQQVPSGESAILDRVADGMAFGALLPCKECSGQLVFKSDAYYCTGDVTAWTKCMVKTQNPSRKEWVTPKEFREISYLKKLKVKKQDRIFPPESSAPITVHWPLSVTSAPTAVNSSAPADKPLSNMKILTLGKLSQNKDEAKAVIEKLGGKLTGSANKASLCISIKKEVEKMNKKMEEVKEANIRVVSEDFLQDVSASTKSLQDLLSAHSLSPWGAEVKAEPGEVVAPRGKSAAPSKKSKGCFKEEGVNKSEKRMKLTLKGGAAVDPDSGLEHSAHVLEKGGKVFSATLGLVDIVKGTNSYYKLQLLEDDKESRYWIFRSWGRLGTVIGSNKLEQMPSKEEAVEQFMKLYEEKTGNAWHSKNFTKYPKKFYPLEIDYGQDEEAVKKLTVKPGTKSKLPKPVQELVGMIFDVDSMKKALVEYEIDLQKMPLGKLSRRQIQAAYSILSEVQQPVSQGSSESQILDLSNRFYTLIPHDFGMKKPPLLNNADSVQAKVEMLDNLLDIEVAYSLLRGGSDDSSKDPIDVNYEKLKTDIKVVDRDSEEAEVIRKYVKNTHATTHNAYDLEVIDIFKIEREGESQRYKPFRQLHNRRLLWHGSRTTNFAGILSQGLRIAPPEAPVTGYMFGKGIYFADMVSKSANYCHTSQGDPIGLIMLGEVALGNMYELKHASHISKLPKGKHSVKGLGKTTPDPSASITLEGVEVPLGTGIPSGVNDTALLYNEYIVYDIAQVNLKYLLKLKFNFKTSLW

Turning to `NC(=O)c1cccc(O)c1` [3-hydroxybenzamide, reference compound], the IC50 in data set [1] (setting [3]) was 8000 ± 3500 nM.

Regarding `Cc1nc2c(C(N)=O)cccc2[nH]1` [NU1064, 2-methylbenzimidazole-4-carboxamide], in data set [1] (setting [3]), the IC50 amounted to 1090 ± 230 nM. Moreover, the entries for the “relative plating efficiency, NU1064 with temozolomide” value in data set [2] (100 μM NU1064 + 100 μM temozolomide) and in data set [2] (200 μM NU1064 + 100 μM temozolomide) were 28% and 2%, respectively. The viability at 100 µM in data set [2] (Mus musculus, L1210, 100 μM NU1064, 24 hours, normalised to control = 100%, read-out: relative plating efficiency, NU1064 alone) was found to be 72%. Further, the viability at 200 µM in data set [2] (Mus musculus, L1210, 200 μM NU1064, 24 hours, normalised to control = 100%, read-out: relative plating efficiency, NU1064 alone) is 54%. For the same compound, the “potentiation of temozolomide cytotoxicity (in words)” value in data set [2] (increasing concentrations of NU1064 + 100 μM temozolomide) is “very marked increase in temozolomide cytotoxicity”.

Consider `NC(=O)c1cccc2[nH]cnc12` [NU1066, benzimidazole-4-carboxamide], for which the IC50 in data set [1] (IC50 value (PARP inhibition)) is 1260 nM and 1020 nM.

In the case of `O=C(O)c1cccc2nc[nH]c12` [NU1067, benzimidazole-4-carboxylic acid], the “% Inhibition at 10 μM or IC50 value (result in words)” value in data set [1] (result in words in table) is “Inactive”.

`COc1ccc(-c2nc3c(C(N)=O)cccc3[nH]2)cc1` [NU1076, 2-(4'-methoxyphenyl)benzimidazole-4-carboxamide]: the IC50 in data set [1] (setting [3]) was determined as 59 nM.

`NC(=O)c1cccc2nc(-c3ccc(O)cc3)[nH]c12` [NU1085, 2-(4'-Hydroxyphenyl)-1-H-benzimidazole-4-carboxamide]: in data set [1] (IC50 value (PARP inhibition)), the IC50 came out at 77 nM.

On to `NC(=O)c1cccc2[nH]c(C(F)(F)F)nc12` [NU1086, 2-trifluoromethylbenzimidazole-4-carboxamide], for which the IC50 in data set [1] (setting [3]) was 1600 nM.

Regarding `COc1ccc(-c2nc3c(C(N)=O)cccc3n2C)cc1` [NU1090, 2-(4'-Methoxyphenyl)-1-methylbenzimidazole-4-carboxamide], the IC50 in data set [1] (setting [3]) was approximately 100 nM.

As to `NC(=O)c1cccc2[nH]c(-c3ccc([N+](=O)[O-])cc3)nc12` [NU1091, 2-(4'-Nitrophenyl)-1-H-benzimidazole-4-carboxamide], the “PARP inhibitory activity (in words)” value in data set [1] is on record as “exceptionally high inhibitory activities”. Also, in data set [1] (setting [3]), the concentration for half-maximal inhibition (IC50) was determined as 22 nM.

For the compound `N#Cc1ccc(-c2nc3c(C(N)=O)cccc3[nH]2)cc1` [NU1092, 2-(4'-Cyanophenyl)-1-H-benzimidazole-4-carboxamide], the “PARP inhibitory activity (in words)” value in data set [1] is “exceptionally high inhibitory activities”. Also, in data set [1] (setting [3]), the IC50 worked out at 33 nM.

For `NC(=O)c1cccc2[nH]c(-c3cccc(C(F)(F)F)c3)nc12` [NU1093, 2-(3'-Trifluoromethylphenyl)-1-H-benzimidazole-4-carboxamide], in data set [1] (setting [3]), the IC50 was found to be 76 nM.

Turning to `COc1cccc(-c2nc3c(C(N)=O)cccc3[nH]2)c1` [NU1098, 2-(3'-Methoxyphenyl)-1-H-benzimidazole-4-carboxamide], the IC50 in data set [1] (setting [3]) came to 130 nM.

Regarding `COc1ccc(-c2nc3c(C(N)=O)cccc3n2C(=O)c2ccccc2)cc1` [NU1101, 2-(4'-Methoxyphenyl)-1-benzoylbenzimidazole-4-carboxamide], the IC50 in data set [1] (setting [3]) was 270 nM.

`NC(=O)c1cccc2nc(-c3ccc(N)cc3)[nH]c12` [NU1103, 2-(4'-aminophenyl)benzimidazole-4-carboxamide]: in data set [1] (setting [3]), the IC50 was 91 nM.

Take `NC(=O)c1ccccc1` [benzamide, reference compound]: in data set [1] (setting [3]), the IC50 was determined as 12400 ± 3100 nM.

The compound `Cn1nnc2c(C(N)=O)ncn2c1=O` [temozolomide, reference compound] came in with a plating efficiency in data set [2] (100 μM temozolomide alone, 24 hours (control 89%)) of 32%.

“CGGAATTCCG: single strand oligonucleotide having the palindromic sequence CGGAATTCCG, activator of PARP (chemistry not given here) [reference compound]”: the “activation of PARP by oligonucleotide (in words)” value in data set [1] was “potent activator of the enzyme”.
